{"source": "patent US20040204492A1", "about": "“Topical composition and method for treating seborrheic dermatitis” (Healthpoint, Ltd., priority 2003, published 2004)", "origin": "cited, not measured here", "tested_on": "sulfonamide sensitive gram-positive and gram-negative microorganisms", "details": "microorganisms commonly isolated from secondary cutaneous infections"}
{"smiles": "CC(=O)NS(=O)(=O)c1ccc(N)cc1.O.[Na]", "note": "[Sulfacetamide sodium, Acetamide N-[(4-aminophenyl)sulfonyl]-, monosodium salt, monohydrate]", "values": [{"measurement": "bacteriostatic effect", "value": "exerts a bacteriostatic effect"}]}
